Test results as given in patent US7572817B2, “2,5-disubstituted 3-mercaptopentanoic acid” (AstraZeneca AB, priority 2002, dated 2009).

Target: T1, carboxypeptidase U (Homo sapiens, UniProt Q96IY4)
T1 sequence (Q96IY4 115-423): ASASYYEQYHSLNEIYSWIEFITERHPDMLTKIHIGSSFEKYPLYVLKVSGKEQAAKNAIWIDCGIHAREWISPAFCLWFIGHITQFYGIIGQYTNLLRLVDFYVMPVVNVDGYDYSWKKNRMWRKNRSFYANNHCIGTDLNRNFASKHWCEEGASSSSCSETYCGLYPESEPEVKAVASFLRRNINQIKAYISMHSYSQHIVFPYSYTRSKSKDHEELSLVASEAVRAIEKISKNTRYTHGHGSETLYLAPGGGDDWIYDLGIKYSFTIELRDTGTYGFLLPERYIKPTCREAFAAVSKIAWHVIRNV
Experiment: carboxypeptidase U inhibition assay (Hendriks et al., Clinical Chemistry 31, 1936-1939 (1985))
Assay type: biochemical
Details: assay of Hendriks, Scharpé and van Sande
Description: The inhibiting effect of the compounds of the present invention was estimated using the assay described in: Dirk Hendriks, Simon Scharpé and Marc van Sande, Clinical Chemistry, 31, 1936-1939 (1985); and Wei Wang, Dirk F. Hendriks, Simon S. Scharpé, The Journal of Biological Chemistry, 269, 15937-15944 (1994).
The activities of certain Examples in the assay described in: Dirk Hendriks, Simon Scharpé and Marc van Sande, Clinical Chemistry, 31, 1936-1939 (1985) are presented in Table I below.

Nc1ccc(CC(C(=O)O)C(S)CCc2cccc(Cl)c2)cn1 (stereo not shown) [Example 6, 2-[(6-Aminopyridin-3-yl)methyl]-5-(3-chlorophenyl)-3-mercaptopentanoic acid] was tested, and the IC50 was 800 nM.

In the case of Nc1ccc(CC(C(=O)O)C(S)CCc2ccc3c(c2)OCO3)cn1 (stereo not shown) [Example 7, 2-[(6-Aminopyridin-3-yl)methyl]-5-(1,3-benzodioxol-5-yl)-3-mercaptopentanoic acid], the IC50 is reported as 800 nM.

N#CCc1ccc(CCC(S)C(Cc2ccc(N)nc2)C(=O)O)cc1 (stereo not shown) [Example 11, 2-[(6-Aminopyridin-3-yl)methyl]-5-[4-(cyanomethyl)phenyl]-3-mercaptopentanoic acid] gave an IC50 of 800 nM.

For Nc1ccc(CC(C(=O)O)C(S)CCC2CCCS2)cn1 (stereo not shown) [Example 18, 2-[(6-Aminopyridin-3-yl)methyl]-3-mercapto-5-(tetrahydro-2-thienyl)pentanoic acid], the IC50 was 1000 nM.

Work on Nc1ncc(CC(C(=O)O)C(S)CCc2ccccc2)s1 (stereo not shown) [Example 24, 2-[(2-Amino-1,3-thiazol-5-yl)methyl]-3-mercapto-5-phenylpentanoic acid] yielded an IC50 of 6300 nM.

O=C(O)C(CC1C2CCC1CNC2)C(S)CCc1ccccc1 (stereo not shown) [Example 25, 2-(3-Azabicyclo[3.2.1]oct-8-ylmethyl)-3-mercapto-5-phenylpentanoic acid] gave an IC50 of 4000 nM.

Nc1ccc(CC(C(=O)O)C(S)CCc2cccc(C(=O)N3CCc4ccccc4C3)c2)cn1 (stereo not shown) [Example 28, 2-[(6-Aminopyridin-3-yl)methyl]-5-[3-(3,4-dihydroisoquinolin-2(1H)-ylcarbonyl)phenyl]-3-mercaptopentanoic acid] showed an IC50 of 800 nM.

Nc1ccc(CC(C(=O)O)C(S)CCc2cccc(C(=O)OCCc3c(Cl)cccc3Cl)c2)cn1 (stereo not shown) [Example 31, 2-[(6-Aminopyridin-3-yl)methyl]-5-(3-{[2-(2,6-dichlorophenyl)ethoxy]carbonyl}phenyl)-3-mercaptopentanoic acid] was tested, and the IC50 was 600 nM.

For Nc1ccc(CC(C(=O)O)C(S)CCc2cccc(C(=O)NCCF)c2)cn1 (stereo not shown) [Example 33, 2-[(6-Aminopyridin-3-yl)methyl]-5-(3-{[(2-fluoroethyl)amino]carbonyl}phenyl)-3-mercaptopentanoic acid], the IC50 was 600 nM.

With CN(Cc1ccccc1)C(=O)c1cccc(CCC(S)C(Cc2ccc(N)nc2)C(=O)O)c1 (stereo not shown) [Example 41] the IC50 was 600 nM.

For Nc1ccc(CC(C(=O)O)C(S)CCc2cccc(C(=O)N3CCCC3)c2)cn1 (stereo not shown) [Example 42, 2-[(6-Aminopyridin-3-yl)methyl]-3-mercapto-5-[3-(pyrrolidin-1-ylcarbonyl)phenyl]pentanoic acid], the IC50 was 600 nM.

CCOC(=O)C1CCN(C(=O)c2cccc(CCC(S)C(Cc3ccc(N)nc3)C(=O)O)c2)CC1 (stereo not shown) [Example 43, 2-[(6-Aminopyridin-3-yl)methyl]-5-(3-{[4-(ethoxycarbonyl)piperidin-1-yl]carbonyl}phenyl)-3-mercaptopentanoic acid] was tested, and the IC50 was 2000 nM.

CN(CC#N)S(=O)(=O)c1cccc(CCC(S)C(Cc2ccc(N)nc2)C(=O)O)c1 (stereo not shown) [Example 47, 2-[(6-Aminopyridin-3-yl)methyl]-5-(3-{[(cyanomethyl)(methyl)amino]-sulfonyl}phenyl)-3-mercaptopentanoic acid] was tested, and the IC50 was 1000 nM.
